According to PubChem BioAssay (NCI):
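Cells were grown in 96-well plates and exposed to each compound for 48 hours at five concentrations; endpoints were interpolated linearly between bracketing concentrations, or set to the highest concentration if not reached. GI50 marks 50% less growth. TGI: concentration producing complete growth inhibition.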

Experiments:
Test in all cases: NCI anticancer screen, dose series, 48 h
UO-31 renal = test system: UO-31 renal
SR leukemia = test system: SR leukemia
HOP-92 NSCLC = test system: HOP-92 NSCLC
MOLT-4 leukemia = test system: MOLT-4 leukemia
A549 NSCLC = test system: A549 NSCLC
SN12C renal = test system: SN12C renal
OVCAR-3 ovarian = test system: OVCAR-3 ovarian
BT-549 breast = test system: BT-549 breast
MCF7 breast = test system: MCF7 breast
T-47D breast = test system: T-47D breast

SMILES	TGI (UO-31 renal) [µM]	TGI (SR leukemia) [µM]	TGI (HOP-92 NSCLC) [µM]	TGI (MOLT-4 leukemia) [µM]	TGI (A549 NSCLC) [µM]	TGI (SN12C renal) [µM]	GI50 (UO-31 renal) [µM]	GI50 (OVCAR-3 ovarian) [µM]	TGI (OVCAR-3 ovarian) [µM]	GI50 (SR leukemia) [µM]	GI50 (A549 NSCLC) [µM]	GI50 (SN12C renal) [nM]	GI50 (BT-549 breast) [µM]	TGI (BT-549 breast) [µM]	GI50 (HOP-92 NSCLC) [nM]	GI50 (MOLT-4 leukemia) [nM]	GI50 (MCF7 breast) [µM]	TGI (MCF7 breast) [µM]	GI50 (T-47D breast) [nM]	TGI (T-47D breast) [µM]
O=C(c1c(O)cc(O)cc1O)C1Cc2ccccc21 (configuration not stated)	> 100	> 100	> 100	> 100	> 100	> 100														
CC(=O)[CH-]C(C)=O.CC(=O)[CH-]C(C)=O.CC(=O)[CH-]C(C)=O.[Ga+3]	> 100	> 100			> 100	> 100	> 100	> 100	> 100	> 100	> 100	> 100000								
COc1ccc2nc3cc(Cl)ccc3c(N3CCN(c4ccnc(N5CCN(C)CC5)n4)CC3)c2c1	3.41	5.94	3.36	5.81	36	8.37	1.77	1.84	3.25	2.19	14.8	2840	3.16	13.4	1590	2380				
CC1CCN(CCOc2ccc(CNc3ccc4nc(CCC5CCCCC5)[nH]c4c3)cc2)CC1	2.67	2.66	2.23	4.5		2.95	1.38	1.61	3.12	0.485		1540	1.52	2.91	643	1600	1.73	3.8		
O=C1C(Nc2cccc(O)c2)=C(Sc2ccccc2)C(=O)N1Cc1ccccc1	18	21.2		12.3	15.9	29.6	4.98	4.83	19.9	4.74	3.81	13000	11.2	43.5		2780	6.87	22.8	1840	19.9
CC1CCC2(C)C(CC=C(C=O)C2(O)C=O)C12CO2 (configuration not stated)	5.69	5.33	5.29	5.83	26.4	8.59			2.6											
N#CNC1=NC(N)C(c2nc3ccccc3[nH]2)=C(CCCC(=O)Nc2cccc([N+](=O)[O-])c2)N1 (configuration not stated)	> 100			> 100	> 100	> 100			> 100											
C=CC[N+]1(CC)CCN=C1CCCCCCCCCCCCCCCCC (configuration not stated)	2.43			3.51		1.99	1.14					623				1070	0.346	1.28	315	1.62
O=S(=O)(NCCCNc1nccc(-c2c(-c3ccc(F)cc3)nc3sccn23)n1)c1ccc(F)cc1	> 100			> 100	> 100	> 100	3.8				4.87	9040	3.9	31.2		8080	3.24	> 100	2280	13.2
Clc1ccc([I+]c2ccc(Cl)cc2Cl)c(Cl)c1	2.98	5.65		6.62	7.71	3.9	1.48	1.65	3.09	2.19	2.66	1850	2.02	4.06		2500	1.87	> 100		
CC(C)OC(=O)C1Cc2c([nH]c3ccccc23)C(c2ccccc2)N1 (configuration not stated)	73.9		> 100	> 100	> 100	> 100			> 100											
CN1CCCC1c1cccnc1.O=C(O)c1ccccc1O.O=C([O-])c1ccccc1[OH2+].O=C([O-])c1ccccc1[OH2+].[Mn+2] (configuration not stated)	> 100		> 100	> 100	> 100	> 100	> 100	21.3	70.5		> 100	> 100000	54.3	> 100	> 100000	64900	40.3	> 100	> 100000	> 100
COc1ccc(C2CC(c3ccc(N(C)C)cc3)=NN2c2ccc(S(N)(=O)=O)cc2)cc1 (configuration not stated)	54.8	> 100		> 100	> 100	4.63	3.01	3.02	8.18	3.77	3.16	2150	2.99	8.7		3910	3	21.7	4510	> 100
Cc1ccc(S(=O)(=O)NC(=O)OC23COCN2COC3)cc1	> 100	> 100	> 100		> 100	> 100			> 100					> 100				> 100		> 100
C=CC(=O)N[C@@H](/C=C/C(=O)OCC)Cc1ccc(-c2cc(Cl)cc(Cl)c2)cc1	96.2	44.8		> 100	> 100	26.7	4.42	7.27	53.1	5.63	17.7	8040	11.9	43.8		7140	5.92	66.4	3350	28
O=[N+]([O-])c1cc(Cc2cc([N+](=O)[O-])c3cccnc3c2O)c(O)c2ncccc12	21.8		37.1	> 30.4	30.8	> 65.3			6.71					> 77.7				29.6		18
C[P+]1(c2ccccc2)CCCCC1	> 100			> 100	> 100	> 100			> 100											
C=C1C=CC2(Br)OC3CC(C)(Cl)C(Br)CC13C2(C)C (configuration not stated)	70.5		50.8	34.9	> 100	37.7			40.8											
Cn1nc(-c2ccccc2)c(C(=O)/C=C/c2ccc(Cl)cc2)c(N2CCOCC2)c1=O	21.7		9.36	4.63	23.1	29.2														
